Measurements reported in patent US8716275B2, “Compound for the treatment of hepatitis C” (Bristol-Meyers Squibb Company, priority 2011, dated 2014).

Columns and labels:
[1] = target: T1, hERG potassium channel (Homo sapiens, UniProt Q12809); assay: hERG Flux assay (FLIPR); assay type: cell-based; conditions: HEK293 cells stably-expressing hERG, thallium flux
T1 construct: expressed in transfected cells; host or cells: HEK293
Procedure: Cells are incubated at 21° C. for 45 minutes.
Data Analysis. […] The raw fluorescence units data files generated on the FLIPR plate reader are automatically exported and processed by in-house data analysis tools.

[2] = test system: genotype 1b HCV replicon in Huh-7 cells; assay: HCV Replicon Luciferase Assay; assay type: cell-based; conditions: Hepatitis C virus, Huh-7, 72 h
Procedure: Cell Lines. The cell lines used to evaluate compounds consist of a human hepatocyte derived cell line (Huh-7) that constitutively expresses a genotype 1b HCV replicon containing a Renilla luciferase reporter gene. These cells were maintained in Dulbecco's modified Eagle medium (DMEM) containing 10% FBS, 100 U/mL penicillin/streptomycin and 1.0 mg/mL G418.
HCV Replicon Luciferase Assay. To evaluate compound efficacy, titrated compounds were transferred to sterile 384-well tissue culture treated plates, and the plates were seeded with HCV replicon cells (50 μL at a density of 2.4×10^3 cells/well) in DMEM containing 4% FBS (final DMSO concentration at 0.5%). After 3 days incubation at 37° C., cells were analyzed for Renilla Luciferase activity using the EnduRen substrate (Promega cat #E6485) according to the manufacturer's directions. Briefly, the EnduRen substrate was diluted in DMEM and then added to the plates to a final concentration of 7.5 μM. The plates were incubated for at least 1 h at 37° C. then read on a Viewlux Imager (PerkinElmer) using a luminescence program. The 50% effective concentration (EC50) was calculated using the four-parameter logistic formula noted above.

[3] = target: NS5B protein of HCV, genotype 1b (Hepatitis C virus genotype 1b, UniProt Q9WMX2); assay: biochemical
Procedure: The cDNA encoding the NS5B protein of HCV, genotype 1b, was cloned into the pET21a expression vector. The protein was expressed with an 18 amino acid C-terminal truncation to enhance the solubility. The E. coli competent cell line BL21(DE3) was used for expression of the protein. Cultures were grown at 37° C. for ˜4 hours until the cultures reached an optical density of 2.0 at 600 nm. The cultures were cooled to 20° C. and induced with 1 mM IPTG. Fresh ampicillin was added to a final concentration of 50 μg/mL and the cells were grown overnight at 20° C.
The lysis buffer consisted of 20 mM Tris-HCl, pH 7.4, 500 mM NaCl, 0.5% triton X-100, 1 mM DTT, 1 mM EDTA, 20% glycerol, 0.5 mg/mL lysozyme, 10 mM MgCl2, 15 ug/mL deoxyribonuclease I, and Complete TM protease inhibitor tablets (Roche). After addition of the lysis buffer, frozen cell pellets were resuspended using a tissue homogenizer. […]
After incubating for at least 15 minutes, plates were read on an Amersham LEADseeker multimodality imaging system.
IC50 values for compounds were determined using ten different [I]. IC50 values were calculated from the inhibition using the four-parameter logistic formula y=A+((B−A)/(1+((C/x)^D))), where A and B denote minimal and maximal % inhibition, respectively, C is the IC50, D is hill slope and x represents compound concentration.

[4] = target: T1, hERG potassium channel; assay: hERG patch clamp assay; assay type: cell-based; conditions: HEK293 cells stably transfected with hERG cDNA, peak tail currents, read-out: % Inhibition (Mean ± SE)
Excerpt: Cell Line. Human embryonic kidney (HEK293) cells stably transfected with human ether-a-go-go related gene (hERG) cDNA were used in the hERG assay. The biophysical and pharmacological properties of recombinant hERG channels expressed in HEK293 cells and of native IKr channels in human cardiac cells are nearly identical. Several known hERG blockers, including dofetilide, terfenadine, cisapride and E-4031 inhibit recombinant hERG currents in the hERG stable cell line and IKr currents in isolated cardiac myocytes with identical potency.
Patch Clamp. […]
Initially, a current-voltage relationship was generated in the control bath solution using the following voltage protocol. hERG currents were elicited by 2 second step depolarizations applied from a holding potential of −80 mV to test potentials ranging from −70 mV to +60 mV. […] The peak tail current was monitored until a new steady-state in the presence of test article was achieved. This was followed by the application of the next higher concentration of test article to be tested, and was repeated until all concentrations of test article had been evaluated. Effects of test article on hERG channel were calculated by measuring inhibition of peak tail currents. Percent inhibition of tail currents was plotted as a function of test article concentration to quantify hERG channel inhibition. […] All currents were recorded at room temperature 25° C.

T1 sequence (Q12809 whole entry): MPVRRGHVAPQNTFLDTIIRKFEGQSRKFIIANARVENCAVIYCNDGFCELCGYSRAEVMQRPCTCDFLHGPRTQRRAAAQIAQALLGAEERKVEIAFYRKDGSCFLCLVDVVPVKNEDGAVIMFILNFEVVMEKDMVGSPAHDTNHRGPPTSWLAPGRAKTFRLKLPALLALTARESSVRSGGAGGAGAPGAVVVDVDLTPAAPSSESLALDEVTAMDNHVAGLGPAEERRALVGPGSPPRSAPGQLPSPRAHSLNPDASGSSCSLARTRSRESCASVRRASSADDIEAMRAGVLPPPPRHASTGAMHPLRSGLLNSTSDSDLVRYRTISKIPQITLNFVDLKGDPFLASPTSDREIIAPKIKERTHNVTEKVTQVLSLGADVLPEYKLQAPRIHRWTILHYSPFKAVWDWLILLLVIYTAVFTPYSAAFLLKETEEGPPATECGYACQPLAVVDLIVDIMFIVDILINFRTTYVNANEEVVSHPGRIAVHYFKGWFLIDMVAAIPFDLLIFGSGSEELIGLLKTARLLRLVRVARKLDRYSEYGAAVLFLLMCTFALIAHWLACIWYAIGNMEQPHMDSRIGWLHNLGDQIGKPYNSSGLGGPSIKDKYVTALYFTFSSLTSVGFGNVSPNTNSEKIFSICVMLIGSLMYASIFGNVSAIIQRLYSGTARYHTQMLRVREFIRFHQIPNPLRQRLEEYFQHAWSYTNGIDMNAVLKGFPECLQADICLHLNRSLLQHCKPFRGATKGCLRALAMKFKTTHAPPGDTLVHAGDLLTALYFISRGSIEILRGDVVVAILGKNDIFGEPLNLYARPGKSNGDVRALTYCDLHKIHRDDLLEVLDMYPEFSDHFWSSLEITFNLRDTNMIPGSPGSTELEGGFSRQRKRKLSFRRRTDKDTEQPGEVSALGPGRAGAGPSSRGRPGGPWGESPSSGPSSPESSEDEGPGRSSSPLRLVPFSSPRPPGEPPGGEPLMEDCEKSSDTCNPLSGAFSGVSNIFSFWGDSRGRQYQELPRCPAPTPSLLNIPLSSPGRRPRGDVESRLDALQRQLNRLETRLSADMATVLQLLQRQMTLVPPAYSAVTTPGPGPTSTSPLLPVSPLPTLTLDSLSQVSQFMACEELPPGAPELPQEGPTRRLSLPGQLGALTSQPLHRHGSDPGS
Chain of NS5B protein of HCV, genotype 1b (Q9WMX2 2420-2992): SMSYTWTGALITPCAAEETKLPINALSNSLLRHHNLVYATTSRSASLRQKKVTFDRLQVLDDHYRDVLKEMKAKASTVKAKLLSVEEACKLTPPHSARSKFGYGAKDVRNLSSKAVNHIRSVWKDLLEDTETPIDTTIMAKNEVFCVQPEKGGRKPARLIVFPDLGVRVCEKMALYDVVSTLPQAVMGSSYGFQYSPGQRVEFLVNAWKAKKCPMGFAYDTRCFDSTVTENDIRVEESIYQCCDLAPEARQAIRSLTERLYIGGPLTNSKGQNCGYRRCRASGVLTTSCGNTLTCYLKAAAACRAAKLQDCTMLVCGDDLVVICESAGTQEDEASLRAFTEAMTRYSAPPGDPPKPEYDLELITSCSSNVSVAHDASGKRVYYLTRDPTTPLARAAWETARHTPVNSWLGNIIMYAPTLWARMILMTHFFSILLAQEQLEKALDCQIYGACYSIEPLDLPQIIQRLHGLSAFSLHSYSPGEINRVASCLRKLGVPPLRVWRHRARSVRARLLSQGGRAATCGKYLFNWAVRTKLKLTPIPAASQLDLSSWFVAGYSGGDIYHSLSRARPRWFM

Structure (SMILES): CN1CC2CCC(C1)N2C(=O)[C@]12C[C@H]1c1cc(F)ccc1-c1c(C3CCCCC3)c3ccc(C(=O)NS(=O)(=O)C4(C)CC4)cc3n1C2 [Compound I, (1aR,12bS)-8-cyclohexyl-11-fluoro-N-((1-methylcyclopropyl)sulfonyl)-1a-((3-methyl-3,8-diazabicyclo[3.2.1]oct-8-yl)carbonyl)-1,1a,2,12b-tetrahydrocyclopropa[d]indolo[2,1-a][2]benzazepine-5-carboxamide]
- IC50 [1]: 23400 nM
- EC50 [2]: 7 nM
- IC50 [3]: 5 nM
- inhibition at 10 μM ([4]; pH 7.4, Conc. 10 μM): 30.5 ± 1.9%
- inhibition at 30 μM ([4]; pH 7.4, Conc. 30 μM): 43.4 ± 2%
